Test results from ChEMBL document CHEMBL4507278 (2021).

Experiments:
[1] = molecular target: Serine/threonine-protein kinase PAK 3 (Homo sapiens) (UniProt O75914); settings: Compound concentration 1000.0 nM
[2] = molecular target: Proto-oncogene tyrosine-protein kinase ROS (Homo sapiens) (UniProt P08922); settings: Compound concentration 1000.0 nM
[3] = molecular target: Hepatocyte growth factor receptor (Homo sapiens) (UniProt P08581); settings: Compound concentration 1000.0 nM
[4] = molecular target: Serine/threonine-protein kinase D2 (Homo sapiens) (UniProt Q9BZL6); settings: Compound concentration 1000.0 nM
[5] = molecular target: Muscle, skeletal receptor tyrosine-protein kinase (Homo sapiens) (UniProt O15146); settings: Compound concentration 1000.0 nM
[6] = molecular target: Serine/threonine-protein kinase N1 (Homo sapiens) (UniProt Q16512); settings: Compound concentration 1000.0 nM
[7] = molecular target: Serine/threonine-protein kinase PLK3 (Homo sapiens) (UniProt Q9H4B4); settings: Compound concentration 1000.0 nM
[8] = molecular target: Peripheral plasma membrane protein CASK (Homo sapiens) (UniProt O14936); settings: Compound concentration 1000.0 nM
[9] = molecular target: Membrane-associated tyrosine- and threonine-specific cdc2-inhibitory kinase (Homo sapiens) (UniProt Q99640); settings: Compound concentration 1000.0 nM
Sequence of Membrane-associated tyrosine- and threonine-specific cdc2-inhibitory kinase (Homo sapiens) (Q99640 whole entry): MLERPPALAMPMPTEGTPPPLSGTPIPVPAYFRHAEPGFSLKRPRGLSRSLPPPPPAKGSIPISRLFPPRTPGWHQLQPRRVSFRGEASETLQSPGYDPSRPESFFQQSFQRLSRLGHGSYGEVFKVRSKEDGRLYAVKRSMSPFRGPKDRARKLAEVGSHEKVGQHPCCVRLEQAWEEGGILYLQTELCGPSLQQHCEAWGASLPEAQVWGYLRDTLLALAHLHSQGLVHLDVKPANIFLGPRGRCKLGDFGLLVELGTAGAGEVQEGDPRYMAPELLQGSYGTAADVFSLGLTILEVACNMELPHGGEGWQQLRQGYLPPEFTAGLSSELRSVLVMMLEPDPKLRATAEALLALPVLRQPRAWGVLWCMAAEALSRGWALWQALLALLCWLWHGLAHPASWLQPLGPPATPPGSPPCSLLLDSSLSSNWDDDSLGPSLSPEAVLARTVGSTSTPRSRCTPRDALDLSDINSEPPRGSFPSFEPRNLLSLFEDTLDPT

[10] = molecular target: Serine/threonine-protein kinase NIM1 (Homo sapiens) (UniProt Q8IY84); settings: Compound concentration 1000.0 nM
[11] = molecular target: Tyrosine-protein kinase ZAP-70 (Homo sapiens) (UniProt P43403); settings: Compound concentration 1000.0 nM
Sequence of Tyrosine-protein kinase ZAP-70 (Homo sapiens) (P43403 whole entry): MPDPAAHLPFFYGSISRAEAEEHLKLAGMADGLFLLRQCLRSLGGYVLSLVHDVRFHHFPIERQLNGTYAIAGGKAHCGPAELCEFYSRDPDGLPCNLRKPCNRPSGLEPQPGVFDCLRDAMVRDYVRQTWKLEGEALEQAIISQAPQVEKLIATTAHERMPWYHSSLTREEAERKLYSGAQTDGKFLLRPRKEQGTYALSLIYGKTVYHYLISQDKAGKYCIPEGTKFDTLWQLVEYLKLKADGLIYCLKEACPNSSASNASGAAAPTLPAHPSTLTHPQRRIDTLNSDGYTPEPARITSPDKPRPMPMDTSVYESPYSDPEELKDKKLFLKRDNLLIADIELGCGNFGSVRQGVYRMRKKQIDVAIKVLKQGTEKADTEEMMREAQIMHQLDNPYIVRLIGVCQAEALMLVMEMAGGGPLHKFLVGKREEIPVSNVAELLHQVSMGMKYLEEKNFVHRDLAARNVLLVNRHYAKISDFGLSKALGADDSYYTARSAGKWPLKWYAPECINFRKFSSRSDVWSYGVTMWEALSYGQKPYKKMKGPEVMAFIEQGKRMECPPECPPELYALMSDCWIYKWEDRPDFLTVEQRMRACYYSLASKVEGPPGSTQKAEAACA

[12] = molecular target: MAP kinase-activated protein kinase 2 (Homo sapiens) (UniProt P49137); settings: Compound concentration 1000.0 nM
[13] = molecular target: Serine/threonine-protein kinase mTOR (Homo sapiens) (UniProt P42345); settings: Compound concentration 1000.0 nM
[14] = test system: Hepatocyte growth factor receptor (Homo sapiens), P08581 [Y1235D]; settings: Compound concentration 1000.0 nM
[15] = test system: Epidermal growth factor receptor (Homo sapiens), P00533 [L858R,T790M]; settings: Compound concentration 1000.0 nM
[16] = molecular target: Phosphorylase b kinase gamma catalytic chain, skeletal muscle/heart isoform (Homo sapiens) (UniProt Q16816); settings: Compound concentration 1000.0 nM
[17] = molecular target: Serine/threonine-protein kinase pim-1 (Homo sapiens) (UniProt P11309); settings: Compound concentration 1000.0 nM
[18] = test system: Mast/stem cell growth factor receptor Kit (Homo sapiens), P10721 [V559D,T670I]; settings: Compound concentration 1000.0 nM
Sequence of Mast/stem cell growth factor receptor Kit (Homo sapiens), P10721 [V559D,T670I] (P10721 whole entry V559D/T670I): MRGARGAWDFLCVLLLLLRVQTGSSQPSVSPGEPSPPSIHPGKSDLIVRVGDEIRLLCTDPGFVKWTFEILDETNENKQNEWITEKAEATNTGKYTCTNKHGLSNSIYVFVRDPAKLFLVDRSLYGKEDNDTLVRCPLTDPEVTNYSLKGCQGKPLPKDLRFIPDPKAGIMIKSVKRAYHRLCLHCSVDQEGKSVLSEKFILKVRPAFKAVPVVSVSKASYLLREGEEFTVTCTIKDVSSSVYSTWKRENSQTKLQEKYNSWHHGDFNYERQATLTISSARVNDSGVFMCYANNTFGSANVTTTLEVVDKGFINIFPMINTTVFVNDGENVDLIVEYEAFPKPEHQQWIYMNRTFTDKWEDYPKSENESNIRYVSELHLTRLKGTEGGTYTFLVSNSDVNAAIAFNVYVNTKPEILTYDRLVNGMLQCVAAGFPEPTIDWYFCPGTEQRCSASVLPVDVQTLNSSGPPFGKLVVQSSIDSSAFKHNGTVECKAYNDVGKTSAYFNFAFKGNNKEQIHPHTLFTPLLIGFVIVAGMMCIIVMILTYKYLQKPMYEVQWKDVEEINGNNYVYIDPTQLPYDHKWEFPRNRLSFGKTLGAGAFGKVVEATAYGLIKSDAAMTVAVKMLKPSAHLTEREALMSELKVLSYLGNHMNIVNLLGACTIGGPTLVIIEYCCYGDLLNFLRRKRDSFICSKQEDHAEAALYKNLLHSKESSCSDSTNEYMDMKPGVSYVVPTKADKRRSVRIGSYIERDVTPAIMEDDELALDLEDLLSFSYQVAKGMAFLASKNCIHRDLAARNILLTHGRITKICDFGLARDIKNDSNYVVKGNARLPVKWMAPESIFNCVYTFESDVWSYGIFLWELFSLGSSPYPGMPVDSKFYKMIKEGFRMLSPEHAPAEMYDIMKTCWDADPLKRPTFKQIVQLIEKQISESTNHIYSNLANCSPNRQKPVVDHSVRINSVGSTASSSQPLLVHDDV

[19] = molecular target: Dual specificity protein kinase CLK2 (Homo sapiens) (UniProt P49760); settings: Compound concentration 1000.0 nM
[20] = molecular target: Serine/threonine-protein kinase D3 (Homo sapiens) (UniProt O94806); settings: Compound concentration 1000.0 nM
[21] = molecular target: Platelet-derived growth factor receptor beta (Homo sapiens) (UniProt P09619); settings: Compound concentration 1000.0 nM
[22] = molecular target: Phosphatidylinositol 4,5-bisphosphate 3-kinase catalytic subunit delta isoform (Homo sapiens) (UniProt O00329); settings: Compound concentration 1000.0 nM
[23] = molecular target: Mast/stem cell growth factor receptor Kit (Homo sapiens) (UniProt P10721); settings: Compound concentration 1000.0 nM
Sequence of Mast/stem cell growth factor receptor Kit (Homo sapiens) (P10721 whole entry): as the sequence (P10721 whole entry V559D/T670I) above, with D559V, I670T counted along it

[24] = molecular target: Serine/threonine-protein kinase Sgk2 (Homo sapiens) (UniProt Q9HBY8); settings: Compound concentration 1000.0 nM
[25] = test system: Epidermal growth factor receptor (Homo sapiens), P00533 [UNDEFINED MUTATION]; settings: Compound concentration 1000.0 nM
[26] = molecular target: Proto-oncogene tyrosine-protein kinase Src (Homo sapiens) (UniProt P12931); settings: Compound concentration 1000.0 nM
[27] = test system: Tyrosine-protein kinase ABL1 (Homo sapiens), P00519 [T315I]; settings: Compound concentration 1000.0 nM
[28] = test system: Epidermal growth factor receptor (Homo sapiens), P00533 [G719S]; settings: Compound concentration 1000.0 nM
[29] = molecular target: Dual specificity mitogen-activated protein kinase kinase 5 (Homo sapiens) (UniProt Q13163); settings: Compound concentration 1000.0 nM
[30] = molecular target: Serine/threonine-protein kinase WNK2 (Homo sapiens) (UniProt Q9Y3S1); settings: Compound concentration 1000.0 nM
[31] = molecular target: Mitogen-activated protein kinase kinase kinase 20 (Homo sapiens) (UniProt Q9NYL2); settings: Compound concentration 1000.0 nM
[32] = molecular target: Cyclin-dependent kinase 7 (Homo sapiens) (UniProt P50613); settings: Compound concentration 1000.0 nM
[33] = molecular target: Cyclin-dependent kinase 3 (Homo sapiens) (UniProt Q00526); settings: Compound concentration 1000.0 nM
[34] = molecular target: Vascular endothelial growth factor receptor 2 (Homo sapiens) (UniProt P35968); settings: Compound concentration 1000.0 nM
[35] = test system: Epidermal growth factor receptor (Homo sapiens), P00533 [UNDEFINED MUTATION]; settings: Compound concentration 1000.0 nM; remark: listed apart in the source
[36] = molecular target: LIM domain kinase 1 (Homo sapiens) (UniProt P53667); settings: Compound concentration 1000.0 nM
[37] = molecular target: Interleukin-1 receptor-associated kinase 4 (Homo sapiens) (UniProt Q9NWZ3); settings: Compound concentration 1000.0 nM
[38] = molecular target: Mitogen-activated protein kinase 8 (Homo sapiens) (UniProt P45983); settings: Compound concentration 1000.0 nM
[39] = molecular target: Serine/threonine-protein kinase Nek3 (Homo sapiens) (UniProt P51956); settings: Compound concentration 1000.0 nM
Sequence of Serine/threonine-protein kinase Nek3 (Homo sapiens) (P51956 whole entry): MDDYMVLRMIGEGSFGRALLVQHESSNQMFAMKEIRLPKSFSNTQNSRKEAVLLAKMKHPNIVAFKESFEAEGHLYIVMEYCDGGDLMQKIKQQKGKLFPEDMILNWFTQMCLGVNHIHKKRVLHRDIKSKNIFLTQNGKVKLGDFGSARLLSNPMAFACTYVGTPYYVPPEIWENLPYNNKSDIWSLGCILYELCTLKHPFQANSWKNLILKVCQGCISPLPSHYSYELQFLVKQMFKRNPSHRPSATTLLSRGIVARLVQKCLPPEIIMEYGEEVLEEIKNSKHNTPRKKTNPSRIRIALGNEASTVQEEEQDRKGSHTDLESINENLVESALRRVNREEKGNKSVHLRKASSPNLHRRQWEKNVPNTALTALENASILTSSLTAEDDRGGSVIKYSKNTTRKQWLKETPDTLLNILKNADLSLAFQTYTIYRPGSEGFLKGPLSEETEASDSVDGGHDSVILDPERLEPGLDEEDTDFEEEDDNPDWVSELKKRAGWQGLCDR

[40] = molecular target: Aurora kinase B (Homo sapiens) (UniProt Q96GD4); settings: Compound concentration 1000.0 nM
[41] = molecular target: Inhibitor of nuclear factor kappa-B kinase subunit epsilon (Homo sapiens) (UniProt Q14164); settings: Compound concentration 1000.0 nM
[42] = test system: Mast/stem cell growth factor receptor Kit (Homo sapiens), P10721 [V559D,V654A]; settings: Compound concentration 1000.0 nM
Sequence of Mast/stem cell growth factor receptor Kit (Homo sapiens), P10721 [V559D,V654A] (P10721 whole entry V559D/V654A): as the sequence (P10721 whole entry V559D/T670I) above, with V654A, I670T counted along it

[43] = molecular target: GABA-A receptor; anion channel (Rattus norvegicus) (UniProt O09028+P15431+P18506+P18508+P19969+P20236+P23574+P23576+P28471+P28473+P30191+P62813+P63079+P63138+Q91ZM7+Q9ES14); settings: Compound concentration 10.0 uM

Sequence of Proto-oncogene tyrosine-protein kinase ROS (Homo sapiens) (P08922 whole entry): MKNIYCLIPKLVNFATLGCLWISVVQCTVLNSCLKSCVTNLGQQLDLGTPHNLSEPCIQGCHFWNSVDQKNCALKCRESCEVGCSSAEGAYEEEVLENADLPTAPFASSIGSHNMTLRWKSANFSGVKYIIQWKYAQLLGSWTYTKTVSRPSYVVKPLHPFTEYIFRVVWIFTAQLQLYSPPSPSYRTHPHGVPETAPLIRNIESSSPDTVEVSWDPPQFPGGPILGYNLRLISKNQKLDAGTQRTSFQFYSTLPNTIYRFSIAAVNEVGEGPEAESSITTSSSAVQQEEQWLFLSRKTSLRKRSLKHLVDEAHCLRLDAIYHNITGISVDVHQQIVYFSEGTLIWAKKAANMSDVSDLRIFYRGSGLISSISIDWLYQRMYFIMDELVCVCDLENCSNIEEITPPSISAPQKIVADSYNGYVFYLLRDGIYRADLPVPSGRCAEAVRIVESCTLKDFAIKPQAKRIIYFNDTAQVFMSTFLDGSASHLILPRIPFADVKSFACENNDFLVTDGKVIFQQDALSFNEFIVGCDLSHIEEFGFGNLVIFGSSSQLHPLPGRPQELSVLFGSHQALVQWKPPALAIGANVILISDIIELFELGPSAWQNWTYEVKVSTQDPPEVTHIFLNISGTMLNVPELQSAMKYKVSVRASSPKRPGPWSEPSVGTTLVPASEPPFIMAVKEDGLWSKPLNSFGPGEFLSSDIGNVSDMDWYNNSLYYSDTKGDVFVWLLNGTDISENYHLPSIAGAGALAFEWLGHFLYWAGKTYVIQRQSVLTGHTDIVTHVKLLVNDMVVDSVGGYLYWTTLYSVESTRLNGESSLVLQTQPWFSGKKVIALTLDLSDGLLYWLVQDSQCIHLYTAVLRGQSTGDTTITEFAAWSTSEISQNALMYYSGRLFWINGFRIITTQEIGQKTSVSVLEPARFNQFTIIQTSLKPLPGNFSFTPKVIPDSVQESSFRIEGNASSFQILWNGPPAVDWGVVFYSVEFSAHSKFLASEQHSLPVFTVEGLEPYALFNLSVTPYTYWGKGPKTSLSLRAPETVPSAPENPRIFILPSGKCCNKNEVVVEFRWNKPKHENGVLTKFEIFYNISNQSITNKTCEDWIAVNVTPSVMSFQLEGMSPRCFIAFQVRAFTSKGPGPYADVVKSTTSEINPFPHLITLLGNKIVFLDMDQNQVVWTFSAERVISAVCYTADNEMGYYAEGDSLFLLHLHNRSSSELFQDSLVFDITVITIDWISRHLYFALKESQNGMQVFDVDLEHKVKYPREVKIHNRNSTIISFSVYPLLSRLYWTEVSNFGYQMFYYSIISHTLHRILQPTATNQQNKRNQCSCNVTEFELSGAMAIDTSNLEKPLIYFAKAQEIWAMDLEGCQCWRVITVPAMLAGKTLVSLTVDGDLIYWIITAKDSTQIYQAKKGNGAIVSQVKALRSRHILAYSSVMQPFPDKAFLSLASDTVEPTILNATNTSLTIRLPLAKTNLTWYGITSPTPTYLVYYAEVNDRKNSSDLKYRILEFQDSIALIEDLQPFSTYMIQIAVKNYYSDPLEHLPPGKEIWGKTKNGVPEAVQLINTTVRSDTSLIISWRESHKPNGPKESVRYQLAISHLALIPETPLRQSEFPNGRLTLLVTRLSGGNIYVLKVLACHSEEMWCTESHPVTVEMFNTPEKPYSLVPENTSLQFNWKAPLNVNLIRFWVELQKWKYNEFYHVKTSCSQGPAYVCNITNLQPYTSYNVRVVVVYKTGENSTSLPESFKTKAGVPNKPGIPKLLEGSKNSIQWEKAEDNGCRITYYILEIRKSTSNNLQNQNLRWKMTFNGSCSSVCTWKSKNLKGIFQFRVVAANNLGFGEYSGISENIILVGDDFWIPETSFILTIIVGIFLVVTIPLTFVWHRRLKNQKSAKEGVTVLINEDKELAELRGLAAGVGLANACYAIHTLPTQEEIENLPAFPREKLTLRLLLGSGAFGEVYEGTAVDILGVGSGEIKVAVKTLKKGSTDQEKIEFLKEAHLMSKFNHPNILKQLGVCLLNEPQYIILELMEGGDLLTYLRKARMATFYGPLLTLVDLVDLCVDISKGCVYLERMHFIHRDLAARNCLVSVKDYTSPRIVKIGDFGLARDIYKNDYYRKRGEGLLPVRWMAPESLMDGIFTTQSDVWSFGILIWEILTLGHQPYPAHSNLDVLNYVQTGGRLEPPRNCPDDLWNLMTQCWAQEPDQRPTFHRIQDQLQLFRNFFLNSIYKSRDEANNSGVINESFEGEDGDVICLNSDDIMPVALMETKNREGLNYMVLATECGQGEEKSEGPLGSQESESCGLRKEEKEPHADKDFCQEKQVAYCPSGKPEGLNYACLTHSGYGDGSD

CS(=O)(=O)NCC[C@H](NC(=O)c1cncc2c1cnn2-c1ccc(F)cc1)c1ccnc(S(C)(=O)=O)c1 [BI 9307]
inactive: residual activity [1] 100% | residual activity [2] 94% | residual activity [3] 79% | residual activity [4] 94% | residual activity [5] 100% | residual activity [6] 100% | residual activity [7] 100% | residual activity [8] 100% | residual activity [9] 84% | residual activity [10] 100% | residual activity [11] 80% | residual activity [12] 100% | residual activity [13] 88% | residual activity [14] 93% | residual activity [15] 78% | residual activity [16] 75% | residual activity [17] 96% | residual activity [18] 100% | residual activity [19] 100% | residual activity [20] 92% | residual activity [21] 100% | residual activity [22] 100% | residual activity [23] 100% | residual activity [24] 94% | residual activity [25] 71% | residual activity [26] 96% | residual activity [27] 100% | residual activity [28] 75% | residual activity [29] 92% | residual activity [30] 100% | residual activity [31] 88% | residual activity [32] 100% | residual activity [33] 100% | residual activity [34] 100% | residual activity [35] 100% | residual activity [36] 100% | residual activity [37] 100% | residual activity [38] 80% | residual activity [39] 86% | residual activity [40] 100% | residual activity [41] 78% | residual activity [42] 100% | inhibition [43] 23.5%

CS(=O)(=O)c1cc(C2(NC(=O)c3cncc4c3cnn4-c3ccc(F)cc3)CC2)ccn1 [BI 639667]
inactive: residual activity [1] 100% | residual activity [2] 100% | residual activity [3] 100% | residual activity [4] 97% | residual activity [5] 68% | residual activity [6] 100% | residual activity [7] 68% | residual activity [8] 100% | residual activity [9] 85% | residual activity [10] 56% | residual activity [11] 71% | residual activity [12] 100% | residual activity [13] 100% | residual activity [14] 91% | residual activity [15] 81% | residual activity [16] 78% | residual activity [17] 100% | residual activity [18] 84% | residual activity [19] 100% | residual activity [20] 97% | residual activity [21] 93% | residual activity [22] 100% | residual activity [23] 96% | residual activity [24] 67% | residual activity [25] 66% | residual activity [26] 100% | residual activity [27] 73% | residual activity [28] 100% | residual activity [29] 80% | residual activity [30] 75% | residual activity [31] 86% | residual activity [32] 90% | residual activity [33] 81% | residual activity [34] 77% | residual activity [35] 100% | residual activity [36] 100% | residual activity [37] 100% | residual activity [38] 95% | residual activity [39] 100% | residual activity [40] 88% | residual activity [41] 100% | residual activity [42] 88% | inhibition [43] 6.63%
